Results on three molecules are retold here after paper PMC7661526, “Antibiofilm effects of N,O-acetals derived from 2-amino-1,4-naphthoquinone are associated with downregulation of important global virulence regulators in methicillin-resistant Staphylococcus aureus” (Scientific Reports, 2020).

Values after ≈ are worked out from the molar mass of the structure shown. Where two headings read alike, the source gives them in different places.

By CC50 is commonly meant the concentration giving 50% cytotoxicity. Low readings indicate greater toxicity to the cells, high ones lower toxicity to the cells.

Data set [1] has as its system MRSA ST5-SCCmecIV (USA800). Nature of the data set: Disk diffusion test. In kind it is cell-based, Staphylococcus aureus.
Data set [2] has as its system MRSA strain BMB9393 biofilm. Briefly: Biofilm development on polystyrene, crystal violet. In kind it is cell-based, Staphylococcus aureus. To be noted: 1/4MIC (6a 32 µg/mL, 7a 64 µg/mL, vancomycin 0.5 µg/mL); strain BMB9393. The protocol:
Biofilms were formed on polystyrene surfaces using the BEC representative, strain BMB9393. […] The same volume of the bacterial culture in TSB-Glu (37 °C/18 h; at 250 rpm) diluted 1/100 in the same broth was added to the wells. After incubation (37 °C/24 h), supernatants were gently removed, rinsed with distilled water, and treated with crystal violet solution as described. […] Eight independent tests with three replicates each were performed. Controls were inoculated with the same bacterial inoculum but using only TSB-Glu with 2% (v/v) DMSO, final concentration.

The subject of another data set is MRSA BEC (BMB9393). Nature of the data set: microbe, parasite or virus in culture. In kind it is cell-based, Staphylococcus aureus. The protocol:
(§1) For biofilm production, tryptic soy broth (TSB; BD, Franklin Lakes, NJ, USA) was supplemented with 1% (w/v) glucose (TSB-Glu). Tryptic soy agar (TSA; BD) was used for bacterial growth. The Mueller-Hinton broth (MHB; BD) and Mueller-Hinton agar (MHA; BD) was used for susceptibility tests. All strains were maintained in 10% (v/v) glycerol stocks and stored at − 80 °C.
(§2) The derivatives were also analyzed quantitatively using microdilution assays in 96-well inert polystyrene microtiter plates (Nuclon; Nalge Nunc International, Rochester, NY, USA) to determine the minimal inhibitory concentration (MIC)[14]. Biological control, as well as growth conditions, were performed following CLSI recommendation[15],[16]. […] Controls were also performed using 2% (v/v) DMSO only.

A short description of the next data set: Hemocompatibility assay. To be noted: human, pH 7.4. On the procedure: (§3) Erythrocytes were collected from three human volunteers in a citrate tube and washed three times (3×) with PBS (pH 7.4). All derivatives were incubated with the PBS-erythrocyte suspension for 3 h at 37 °C. The hemolysis with the release of hemoglobin was quantified by the spectrophotometric reading of the supernatant at 545 nm. Hemolysis less than 10% represented hemocompatibility and non-toxicity against erythrocyte membranes. For the positive control, the human erythrocytes were lysed with 1% (v/v) Triton X-100. The negative control was performed with 1% (v/v) DMSO only (final concentration). […] All methods were carried out in accordance with relevant guidelines and regulations. In addition, informed consent was obtained from all volunteers. Three independent experiments were performed in triplicate.

A short description of another data set: Cytotoxicity assay (MTT). Particulars: African green monkey, Vero cell monolayers. The protocol: (§4) Plates were incubated for 1 h, the supernatant again removed, and 200 µL dimethyl sulfoxide (DMSO) were added to each well to dissolve the formazan crystals for 10 min. Absorbance was measured at 570 nm using an ELISA reader (Thermo Plate, TP-READER, Thermo Fisher Scientific). […] The selectivity index (SI) was calculated as follows: SI (µg/mL) = CC50/MIC[17]. Three independent experiments were performed in triplicate. Controls were performed using 2% (v/v) DMSO only.

Data set [3] has as its system S. aureus ATCC 25923. Nature of the data set: MIC, broth microdilution. In kind it is cell-based, Staphylococcus aureus. An excerpt:
(§5) Strain representatives of six globally spread clones/lineages of MRSA were used in this study to test the antimicrobial activity of the N,O-acetal derivatives against MRSA: NY/Japan-USA100/ST5-SCCmecII (strain CR15-071), USA300/ST8-SCCmecIV (strain USA300-0114), USA400/ST1-SCCmecIV (strain USA400-0051), Brazilian epidemic clone-BEC/ST239-SCCmecIII (strain BMB9393), pediatric clone-USA800/ST5-SCCmecIV (strain USA800-0179), and OSPC-USA1100/ST30-SCCmecIV (strain 07-040). The S. aureus ATCC 25923 was used as a control for the experiment of drug susceptibility. […] For biofilm production, tryptic soy broth (TSB; BD, Franklin Lakes, NJ, USA) was supplemented with 1% (w/v) glucose (TSB-Glu). Tryptic soy agar (TSA; BD) was used for bacterial growth. The Mueller-Hinton broth (MHB; BD) and Mueller-Hinton agar (MHA; BD) was used for susceptibility tests. All strains were maintained in 10% (v/v) glycerol stocks and stored at − 80 °C.
(§6) The antibacterial activity of 6a and its derivatives 7a, 7b, and 7c was tested as previously described using paper disks impregnated with each compound[13]. The derivatives were also analyzed quantitatively using microdilution assays in 96-well inert polystyrene microtiter plates (Nuclon; Nalge Nunc International, Rochester, NY, USA) to determine the minimal inhibitory concentration (MIC)[14]. Biological control, as well as growth conditions, were performed following CLSI recommendation[15],[16]. […] Controls were also performed using 2% (v/v) DMSO only.
(Dilution methods test growth across graded concentrations, often in twofold steps.)

For data set [4], the system named is MRSA USA300 (USA300-0114). Briefly: MIC, broth microdilution. In kind it is cell-based, Staphylococcus aureus. The protocol: as §1, §2
For data set [5], the system named is MRSA USA400 (USA400-0051). Briefly: MIC, broth microdilution. The data set is classed as cell-based, Staphylococcus aureus. On the procedure:
as §1, §2

For data set [6], the system named is MRSA OSPC-USA1100 (07-040). Briefly: MIC, broth microdilution. In kind it is cell-based, Staphylococcus aureus. The protocol: as §1, §2
Data set [7] deals with MRSA NY/Japan-USA100 (CR15-071). Nature of the data set: MIC, broth microdilution. The data set is classed as cell-based, Staphylococcus aureus. The protocol: as §1, §2
Data set [8] has as its system MRSA Pediatric-USA800 (USA800-0179). Nature of the data set: MIC, broth microdilution. In kind it is cell-based, Staphylococcus aureus. The protocol:
as §1, §2

Data set [9] deals with MRSA ST239-SCCmecIII (BMB9393). Briefly: Disk diffusion test. The data set is classed as cell-based, Staphylococcus aureus. A general note: A growth-free zone around the sample is the usual read-out of agar diffusion tests.
Data set [10] relates to MRSA ST5-SCCmecII (USA100). Briefly: Disk diffusion test. The data set is classed as cell-based, Staphylococcus aureus.
For data set [11], the system named is MRSA ST8-SCCmecIV (USA300). Briefly: Disk diffusion test. In kind it is cell-based, Staphylococcus aureus.
For data set [12], the system named is MRSA (ST1-SCCmecIV) (USA400). Briefly: Disk diffusion test. In kind it is cell-based, Staphylococcus aureus.
The test system of data set [13] is MRSA ST30-SCCmecIV (USA1100). Briefly: Disk diffusion test. The data set is classed as cell-based, Staphylococcus aureus.
The test system of data set [14] is S. aureus ATCC 25923. Nature of the data set: Disk diffusion test. In kind it is cell-based, Staphylococcus aureus.
Excerpt: as §5, §6

Data set [15] has as its system MRSA strain CR15-071 (USA100) cells persistent to vancomycin. Briefly: Vancomycin-persistent cells, high bacterial load on TSA plates. To be noted: vancomycin alone, 4MIC (8 µg/mL) plates, high inoculum. The data set is classed as cell-based, Staphylococcus aureus. The protocol:
For this test, we choose the MRSA strain CR15-071 representative of the ST5-SCCmecII lineage (NY/Japan-USA100 clone), since this MRSA has replaced the ST239-SCCmecIII (the Brazilian clone) in this country, and is now the most frequent MRSA lineage in Brazilian hospitals. […]. The plates were incubated at 37 °C/24 h before being examined. […]. Bacterial growth was determined by removing persistent cells from the plates and determining UFC/ml. Controls were also performed using 2% (v/v) DMSO only. Three independent experiments were performed in triplicate.

Another data set has as its system human erythrocytes. Nature of the data set: Hemocompatibility assay. Particulars: highest concentration evaluated (300 µg/mL), 3 h at 37 °C. On the procedure: as §3
In the next data set the test system is Vero cell line. Nature of the data set: Cytotoxicity assay (MTT). To be noted: Vero cells, 24 h, MTT. On the procedure:
as §4

The mark [16] stands for this setting: Table 2, used for SI, strain not given, values of 6a-7c equal those for BEC (BMB9393).

On to `NC1=CC(=O)c2ccccc2C1=O` [6a, 2-amino-1,4-naphthoquinone], for which the Inhibition zone in [1] turned out to be 8±1.0 mm; in [9], 8±2.0 mm; in data set [10] it was 9±1.0 mm; in [11], 9±1.0 mm; in data set [12], 8±1.2 mm; in data set [13] it was 10±0.5 mm. In the data set with S. aureus ATCC 25923 [14], this molecule gave an Inhibition zone of 9±1.4 mm. Further, the “Effect on biofilm development” value in data set [2] is “much less effective at reducing biofilm development compared with 7b or 7c”. The MIC in the data set on MRSA BEC (BMB9393) (Staphylococcus aureus, MRSA) worked out at 128 µg/mL (≈ 739 µM); with MRSA BEC (BMB9393) (setting [16]) it was 128 µg/mL (≈ 739 µM); in the data set on S. aureus ATCC 25923 [3] (Staphylococcus aureus, ATCC25923, control strain S. aureus ATCC 25923, read-out: MIC) it was 32 µg/mL (≈ 185 µM); in [4] (Staphylococcus aureus) it was 256 µg/mL (≈ 1480 µM); in [5] (Staphylococcus aureus) it was 128 µg/mL (≈ 739 µM); in [6] (Staphylococcus aureus, MRSA), 256 µg/mL (≈ 1480 µM). Also, the MIC stood at 256 µg/mL (≈ 1480 µM) in [7] (Staphylococcus aureus) and 128 µg/mL (≈ 739 µM) in data set [8] (Staphylococcus aureus). Moreover, the hemolysis at 3 h, 300 µg/mL in “Hemocompatibility assay” (human erythrocyte suspension) stood at 3 ± 0.9%. This molecule also yielded a half-maximal cytotoxic concentration (CC50) at 24 h in the data set “Cytotoxicity assay (MTT)” of 97.3 ± 3.12 µg/mL (≈ 562 µM).
For the molecule `CN[C@H](CC(C)C)C(=O)N[C@H]1C(=O)N[C@@H](CC(N)=O)C(=O)N[C@H]2C(=O)N[C@H]3C(=O)N[C@H](C(=O)N[C@H](C(=O)O)c4cc(O)cc(O)c4-c4cc3ccc4O)[C@H](O)c3ccc(c(Cl)c3)Oc3cc2cc(c3O[C@@H]2O[C@H](CO)[C@@H](O)[C@H](O)[C@H]2O[C@H]2C[C@](C)(N)[C@H](O)[C@H](C)O2)Oc2ccc(cc2Cl)[C@H]1O` [Vancomycin, vancomycin, reference compound], the Inhibition zone came out at 17±1.5 mm in data set [1]; 14±1.0 mm in [9]; 16±1.5 mm in data set [10]; 17±1.0 mm in data set [11]; 16±2.0 mm in data set [12]; 16±1.5 mm in data set [13]. In the data set with S. aureus ATCC 25923 [14], this molecule yielded an Inhibition zone of 13±1.0 mm. For the same molecule, the “Effect on biofilm development” value in data set [2] was “not able to reduce biofilm development”. This molecule also came in with a hemolysis at 3 h in the data set “Hemocompatibility assay” of 3.6 ± 0.8%. Moreover, the Refractory/persistent cells recovered in [15] was 4.5 × 10^8 CFU/mL.
In the case of `COCNC1=CC(=O)c2ccccc2C1=O` [7a, 2-(methoxymethyl)-amino-1,4-naphthoquinone], the Inhibition zone in [1] is reported as 12±1.0 mm; in [9], 10±1.5 mm; in data set [10], 12±1.0 mm; in data set [11] it was 14±1.0 mm; in data set [12], 13±2.0 mm; in data set [13], 13±1.0 mm. In the data set on S. aureus ATCC 25923 [14], the Inhibition zone came to 9.7±2.0 mm. In [2], the “Effect on biofilm development” value is “much less effective at reducing biofilm development compared with 7b or 7c”. The MIC is 256 µg/mL (≈ 1180 µM) against MRSA BEC (BMB9393) (setting [16]); 256 µg/mL (≈ 1180 µM) against MRSA BEC (BMB9393) (broth microdilution, BEC (BMB9393)); 128 µg/mL (≈ 589 µM) against S. aureus ATCC 25923 [3] (control strain S. aureus ATCC 25923); 128 µg/mL (≈ 589 µM) in data set [4] (broth microdilution, USA300 (USA300-0114)); 128 µg/mL (≈ 589 µM) in [5] (broth microdilution, USA400 (USA400-0051)); 256 µg/mL (≈ 1180 µM) in [6] (broth microdilution, OSPC-USA1100 (07-040)). In addition, the MIC in [7] (broth microdilution, NY/Japan-USA100 (CR15-071)) is recorded as 256 µg/mL (≈ 1180 µM); in data set [8] (broth microdilution, Pediatric-USA800 (USA800-0179)) it was 256 µg/mL (≈ 1180 µM). Moreover, in the data set on human erythrocytes, the “Hemolysis, maximum values” turned out to be 3.10 ± 0.1%. Besides, in the data set with Vero cell line, the CC50 is recorded as 155.28 ± 1.03 µg/mL (≈ 715 µM).
